Measurements as given in patent US8778966B2, “Quinolinone derivatives as PARP and tank inhibitors” (Janssen Pharmaceutica, NV, priority 2007, dated 2014).

What was measured:
[1] = tested on: PC-3 cells; test: Antiproliferative activity, Alamar Blue assay, PC-3 cells; format: cell-based, human; details: for IC50: Homo sapiens, PC-3, PC3 cells, read-out: PC3 antiproliferative activity pIC50 (converted)
Description: Human prostate cancer PC-3 cells obtained from the ATCC were cultured in HAM′S F12 medium supplemented with 1 mM Sodium Pyruvate, 1.5 g/L Sodium Bicarbonate, 50 μg/ml gentamicin, non-essential amino acids and 10% fetal calf serum.
(§1) Resazurin was purchased from Aldrich (Prod. No. 199303). Potassium ferrocyanide, potassium ferricyanide, KH2PO4 and K2HPO4 were purchased from Sigma (Prod. Nos. P9387, P8131, P5655 and P8281, respectively).
(§2) Potassium Phosphate Buffer 0.1 M (PPB) was made as follows: 2.72 gram KH2PO4 and 13.86 gram K2HPO4 were dissolved in 500 ml milli-Q H2O, the pH was adjusted to pH 7.4 and the volume was brought to 1 litre with milli-Q H2O; the buffer was filter sterilised and stored at room temperature. Resazurin stock solution (PPB-A) was prepared fresh by dissolving 45 mg resazurin in 15 ml PBS. 30 mM potassium ferricyanide (PPB-B) was prepared by dissolving 0.987 gram potassium ferricyanide in 100 ml PPB. 30 mM potassium ferrocyanide (PPB-C) was prepared by dissolving 1.266 gram potassium ferrocyanide in 100 ml PPB.
(§3) Mixture of PPB-A, PPB-B and PPB-C was prepared by mixing equal volumes of the respective solutions. Resazurin work solution (herein termed “Alamar Blue” solution) was prepared by diluting said mixture 20×(vol/vol) in PPB and filter sterilising; the Alamar Blue solution could be kept at 4° C. for a maximum of 2 weeks.
(§4) For experiments in 384 wells plates the cells were seeded at a density of 4.5×10^3 cells/ml in Falcon 384-well culture plates (Life Technologies, Merelbeke, Belgium), black with clear bottom, in 45 μl culture medium. Cells were allowed to adhere to plastic for 24 hr. The tested compound was pre-diluted (1/50 in culture medium) and 5 μl pre-diluted compound was added to the wells. Following 4-day incubation, 10 μl of the Alamar Blue solution was added to each well and the cells were further incubated for 4 hrs (HCT116) or 24 hrs (PC-3) at 37° C. The fluorescence intensity was measured for each well on a Fluorescence plate reader (Fluorskan, Labsystems, 540 nm excitation and 590 nm emission)
(§5) The antiproliferative activity was calculated as percentage of remaining viable cells in treated versus control (untreated cells) conditions. Within an experiment, the result for each experimental condition is the mean of 3 replicate wells. When appropriate, the experiments were repeated to establish full concentration-response curves. When appropriate, IC50-values (concentration of the drug, needed to reduce cell growth to 50% of the control) were computed using probit analysis for graded data (Finney, D. J., Probit Analyses, 2nd Ed. Chapter 10, Graded Responses, Cambridge University Press, Cambridge 1962). Herein the effects of test compounds are expressed as pIC50 (the negative log value of the IC50-value) (see Table 2).

[2] = tested on: PC3 cells; test: EB1 Comet (microtubule disruption) assay; format: cell-based, human; details: 1 hour treatment
Description: The Eb1 Comet assay relies on the detection of the Eb1 protein at the plus end of polymerizing microtubules (Mimori-Kiyosue, 2000) using indirect immunofluorescence. Disruption of microtubule dynamics through de-polymerization or stabilization results in a de-localization of Eb1 from the growing microtubule ends and this is visualized by the disappearance of Eb1 containing cytoplasmic foci.
Briefly, human prostate cancer PC3 cells obtained from the American Type Culture Collection were grown in 96-well plates (Greiner, cat. no. 655090) in HAM's F12 medium as recommended by the provider (ATCC). The cells were treated for 1 hour at 37° C. with compounds dissolved in DMSO (0.6% final DMSO concentration). The culture medium was then removed by aspiration and the cells were fixed by adding cold methanol (−20 C). After a 15 min. incubation at −20 C, the cells were washed twice with DPBS (Gibco) containing 0.5% Triton X-100. Mouse Eb1 antibody (BD Transduction Laboratories, cat. no. 610534) was added to the cells (1/250 dilution in DPBS containing 1% BSA) and incubated overnight at room temperature. The antibody was subsequently removed and the cells washed twice with DPBS, 0.5% Triton X-100. Secondary goat anti-mouse antibody conjugated to Alexa 488 fluorescent dye (Molecular Probes) was added at a 1/500 dilution in DPBS, 1% BSA and incubated for 1 hour at 37 C. The cells were washed twice with DPBS, 0.5% Triton X-100 and then DPBS containing 0.5% Triton X-100 and 1/5000 Hoechst 33342 (Molecular Probes) was added. Microscopy based Eb1 foci visualization was carried out using an IN Cell Analyser 1000 (Amersham Biosciences) using a 20× objective. Compound dependent microtubule disruption was visually determined by the disappearance in Eb1 foci. The lowest active concentration (LAC) was determined as the concentration where Eb1 foci were absent in at least 50% of the treated cells.

[3] = tested on: HCT116 cells; test: Antiproliferative activity, Alamar Blue assay, HCT116 cells; format: cell-based, human; design: key to HCT116 antiproliferative activity pIC50: pIC50 = -log IC50 (IC50: conc. reducing growth to 50% of control); details: for IC50: Homo sapiens, HCT-116, HCT116 cells, read-out: HCT116 antiproliferative activity pIC50 (converted)
Description: Human colon carcinoma HCT116 cells obtained from the ATCC were cultured in McCoy's 5 A medium supplemented with 2 mM L-Glutamine, 50 μg/ml gentamicin and 10% heat inactivated fetal calf serum.
as §1, §2, §3, §4, §5

[4] = molecular target: T1, Human PARP-1 enzyme (Homo sapiens, UniProt P09874); test: In vitro Scintillation Proximity Assay (SPA) for PARP-1 inhibitory activity; format: biochemical; details: read-out: in vitro SPA assay PARP-1 pIC50 (converted)
T1 construct: purchased Trevigen
T1 sequence (P09874 whole entry): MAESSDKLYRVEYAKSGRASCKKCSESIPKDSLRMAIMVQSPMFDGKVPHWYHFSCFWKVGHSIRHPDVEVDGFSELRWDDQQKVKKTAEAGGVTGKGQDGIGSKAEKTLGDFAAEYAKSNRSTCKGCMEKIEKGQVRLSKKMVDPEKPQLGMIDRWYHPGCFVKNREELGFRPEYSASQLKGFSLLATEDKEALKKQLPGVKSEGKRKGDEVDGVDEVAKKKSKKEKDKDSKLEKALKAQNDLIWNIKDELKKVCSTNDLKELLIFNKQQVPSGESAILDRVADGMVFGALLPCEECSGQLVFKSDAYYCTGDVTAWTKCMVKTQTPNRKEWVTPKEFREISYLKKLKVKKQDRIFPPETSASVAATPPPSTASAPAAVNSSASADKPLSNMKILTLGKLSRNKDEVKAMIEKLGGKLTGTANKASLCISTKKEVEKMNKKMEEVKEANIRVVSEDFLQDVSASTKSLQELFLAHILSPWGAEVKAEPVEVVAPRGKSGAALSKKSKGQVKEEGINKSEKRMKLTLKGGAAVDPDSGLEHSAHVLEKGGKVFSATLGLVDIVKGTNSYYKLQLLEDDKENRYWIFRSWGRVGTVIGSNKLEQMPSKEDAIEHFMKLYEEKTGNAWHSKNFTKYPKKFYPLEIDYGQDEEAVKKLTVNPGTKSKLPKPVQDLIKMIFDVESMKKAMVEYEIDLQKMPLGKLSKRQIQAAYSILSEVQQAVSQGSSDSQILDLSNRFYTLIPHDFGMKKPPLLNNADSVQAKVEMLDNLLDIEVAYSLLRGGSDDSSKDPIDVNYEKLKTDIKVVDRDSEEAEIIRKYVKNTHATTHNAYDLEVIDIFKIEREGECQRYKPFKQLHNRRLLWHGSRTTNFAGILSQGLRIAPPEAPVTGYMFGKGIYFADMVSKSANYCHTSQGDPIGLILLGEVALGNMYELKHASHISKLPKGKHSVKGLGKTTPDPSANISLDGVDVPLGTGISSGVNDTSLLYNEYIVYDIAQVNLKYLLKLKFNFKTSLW
Description: Compounds of the present invention were tested in an in vitro assay based on SPA technology (proprietary to GE healthcare).
In principle, the assay relies upon the well established SPA technology for the detection of poly(ADP-ribosyl)ation of biotinylated target proteins, i.e histones. This ribosylation is induced using nicked DNA activated PARP-1 enzyme and [^3H]-nicotinamide adenine dinucleotide ([^3H]-NAD^+) as ADP-ribosyl donor.
Histones (type II-A, supplier: Sigma) were biotinylated using the biotinylation kit of Amersham and stored aliquoted at −20° C. A stock solution of 100 mg/ml SPA poly(vinyl toluene) (PVT) beads (supplier: Amersham) was made in PBS. A stock solution of 61.6 nM [^3H]-NAD^+ was made by adding [^3H]-NAD^+ (0.1 mCi/ml, supplier: Perkin Elmer) to incubation buffer (50 mM Tris/HCl, pH 8; 0.2 mM DTT; 4 mM MgCl2). A solution of 4 mM NAD^+ (supplier: Sigma) was made. Human PARP-1 enzyme was obtained from Trevigen. Biotinylated histones and PVT-SPA beads were mixed and pre-incubated for 30 min. at room temperature. PARP-1 enzyme (concentration was lot dependent) was mixed with the nicked DNA and the mixture was pre-incubated for 30 min. at 4° C. Equal parts of this histones/PVT-SPA beads solution and PARP-1 enzyme/DNA solution were mixed and 75 μl of this mixture together with 1 μl of compound in DMSO and 25 μl of [^3H]-NAD^+ was added per well into a 96-well microtiterplate. The final concentrations in the incubation mixture were 2 μg/ml for the biotinylated histones, 2 mg/ml for the PVT-SPA beads, 0.25 μg/ml for the nicked DNA and between 0.1-0.2 μg/ml for the PARP-1 enzyme. After incubation of the mixture for 20 min. at room temperature, the reaction was terminated by adding 100 μl of 4 mM NAD^+ in water (final concentration 2 mM) and plates were mixed. The beads were sedimented by centrifugation (10 min, 800 rpm). and plates transferred to a TopCountNXT™ (Packard) for scintillation counting, values were expressed as counts per minute (cpm). For each experiment, controls (containing PARP-1 enzyme and DMSO without compound), a blank incubation (containing DMSO but no PARP-1 enzyme, no DNA or compound) and samples (containing PARP-1 enzyme, DNA and compound dissolved in DMSO) were run in parallel. All compounds tested were dissolved and eventually further diluted in DMSO. A dose-response curve was made wherein the compounds were tested at concentrations between 10^−5M and 3×10^−9M. In each test, the blank value was subtracted from both the control and the sample values. The control sample represented maximal PARP-1 enzyme activity. For each sample, the amount of cpm was expressed as a percentage of the mean cpm value of the controls. When appropriate, IC50-values (concentration of the drug, needed to reduce the PARP-1 enzyme activity to 50% of the control) were computed using linear interpolation between the experimental points just above and below the 50% level. Herein the effects of test compounds are expressed as pIC50 (the negative log value of the IC50-value). As a reference compound, 4-amino-1,8-naphthalimide was included to validate the SPA assay.

[5] = molecular target: T2, TANK-2 enzyme (Homo sapiens, UniProt Q9H2K2); test: In vitro Scintillation Proximity Assay (SPA) for TANK-2 inhibitory activity; format: biochemical; details: read-out: in vitro SPA assay TANK-2 pIC50 (converted)
T2 construct: made in house
T2 sequence (Q9H2K2 1-1166): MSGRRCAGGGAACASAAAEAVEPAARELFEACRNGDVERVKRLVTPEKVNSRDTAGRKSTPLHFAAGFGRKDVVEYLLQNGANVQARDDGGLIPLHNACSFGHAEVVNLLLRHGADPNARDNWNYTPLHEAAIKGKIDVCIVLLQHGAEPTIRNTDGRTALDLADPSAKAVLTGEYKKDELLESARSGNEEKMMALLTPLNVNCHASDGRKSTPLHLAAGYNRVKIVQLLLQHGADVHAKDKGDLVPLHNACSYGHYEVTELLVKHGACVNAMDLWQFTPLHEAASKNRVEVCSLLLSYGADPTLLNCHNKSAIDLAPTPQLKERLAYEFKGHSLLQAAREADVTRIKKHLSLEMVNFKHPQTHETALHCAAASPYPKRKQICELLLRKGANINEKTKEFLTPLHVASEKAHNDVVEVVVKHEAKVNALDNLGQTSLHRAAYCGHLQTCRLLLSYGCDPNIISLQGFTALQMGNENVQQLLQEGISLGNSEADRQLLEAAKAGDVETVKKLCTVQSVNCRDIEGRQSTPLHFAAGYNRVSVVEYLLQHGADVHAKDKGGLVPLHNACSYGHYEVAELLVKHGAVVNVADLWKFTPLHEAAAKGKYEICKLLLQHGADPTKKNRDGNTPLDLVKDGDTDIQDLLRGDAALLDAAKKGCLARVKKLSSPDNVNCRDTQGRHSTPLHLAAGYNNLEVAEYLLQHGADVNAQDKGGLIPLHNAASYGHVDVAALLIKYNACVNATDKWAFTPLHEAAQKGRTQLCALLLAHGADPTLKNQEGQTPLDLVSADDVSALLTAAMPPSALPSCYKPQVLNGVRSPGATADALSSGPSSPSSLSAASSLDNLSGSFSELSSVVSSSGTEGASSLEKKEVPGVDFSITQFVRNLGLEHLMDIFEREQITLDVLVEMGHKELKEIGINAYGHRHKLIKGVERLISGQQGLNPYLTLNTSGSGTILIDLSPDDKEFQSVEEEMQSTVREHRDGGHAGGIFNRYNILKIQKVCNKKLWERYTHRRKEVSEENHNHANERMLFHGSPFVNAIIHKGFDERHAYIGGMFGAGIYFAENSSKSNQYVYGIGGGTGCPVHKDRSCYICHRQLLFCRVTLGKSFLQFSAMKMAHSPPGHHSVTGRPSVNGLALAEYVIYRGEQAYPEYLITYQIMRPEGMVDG
Description: Compounds of the present invention were tested in an in vitro assay based on SPA technology with Ni Flash plates (96 or 384 well). In principle, the assay relies upon SPA technology for the detection of auto-poly(ADP-ribosyl)ation of TANK-2 protein using [^3H]-nicotinamide adenine dinucleotide ([^3H]-NAD^+) as ADP-ribosyl donor.
A stock solution of 100 nM [3H]-NAD^+/NAD (0.1 mCi/ml, supplier: Perkin Elmer) and 0.25 μM NAD (Sigma) was made in assay buffer (60 mM Tris/HCl, pH 7.4; 0.9 mM DTT; 6 mM MgCl2). The TANK-2 enzyme was produced as described in EP1238063. 60 μl of assay buffer, together with 1 μl of compound in DMSO, 20 μl of [^3H]-NAD^+/NAD and 20 μl of TANK-2 enzyme (final concentration 8 μg/ml) was added per well into a 96-well Ni-coated flash plate (Perkin Elmer). After incubation of the mixture for 120 min. at room temperature, the reaction was terminated by adding 60 μl of stopsolution (42.6 mg NAD in 6 ml H2O). The plates were covered with a plate sealer and placed in a TopCountNXT™ (Packard) for scintillation counting. Values were expressed as counts per minute (cpm). For each experiment, controls (containing TANK-2 enzyme and DMSO without compound), a blank incubation (containing DMSO but no TANK-2 enzyme or compound) and samples (containing TANK-2 enzyme and compound dissolved in DMSO) were run in parallel. All compounds tested were dissolved and eventually further diluted in DMSO. In first instance, compounds were tested at a concentration of 10^−5M. […] In each test, the blank value was subtracted from both the control and the sample values. The control sample represented maximal TANK-2 enzyme activity. For each sample, the amount of cpm was expressed as a percentage of the mean cpm value of the controls. When appropriate, IC50-values (concentration of the drug, needed to reduce the TANK-2 enzyme activity to 50% of the control) were computed using linear interpolation between the experimental points just above and below the 50% level. Herein the effects of test compounds are expressed as pIC50 (the negative log value of the IC50-value). As reference compounds, 3-aminobenzamide and 4-amino-1,8-naphtalimide were included to validate the SPA assay. Herein the assay was described using 96-well plates. In the assay using 384-well plates the same final concentrations were used and volumes were adapted.

IC50 [1]	IC50 [3]	IC50 [4]	PC3 antiproliferative activity pIC50 ([1]; PC3 cells)	HCT116 antiproliferative activity pIC50 ([3]; HCT116 cells)	IC50 [5]	Compound	minimal effective concentration ([2]; Homo sapiens, PC-3, 1 h, read-out: EB1 pLAC (converted))	EB1 pLAC [2]
2510 nM	2000 nM	501 nM	–	–	–	Cc1cc2ccc([C@](C)(C#N)[C@H]3CCc4cc(Br)ccc43)cc2[nH]c1=O [Compound 239]	1 µM	–
–	–	316 nM	5.2	5.4	–	Cc1cc2ccc(C(C)(C#N)C3CCc4cc(Br)ccc43)cc2[nH]c1=O (stereo not shown) [Compound 243]	–	6
–	–	50.1 nM	–	–	1000 nM	Cc1cc2ccc([C@@](C)(C#N)[C@H]3CCCc4ccccc43)cc2[nH]c1=O [Compound 384]	–	–
10000 nM	5010 nM	251 nM	–	–	–	Cc1cc2ccc([C@@](C)(C#N)[C@@H]3CCc4ccc(Br)cc43)cc2[nH]c1=O [Compound 408]	–	–
